Literature values in PMC10251984, “Interactions of IDO and the Kynurenine Pathway with Cell Transduction Systems and Metabolism at the Inflammation–Cancer Interface” (Cancers, 2023).
pIC50: −log10 of the molar value. Where two headings read alike, the source gives them in different places.

Experiments:
IDO2 [1] = tested on: IDO2; parameters: method as in PMID 29247038; conditions: relative to the D-isomer
[2] = tested on: activated human CD4+T cells; parameters: method as in PMID 32641388; conditions: each compound separately
multiple myeloma = tested on: multiple myeloma; parameters: method as in PMID 29089645, PMID 29487385
PD-L1 [3] = conditions: disrupts the interaction between Myc and HIF-1α
Lewis lung carcinomas = tested on: Lewis lung carcinomas; parameters: method as in PMID 32847988; conditions: combination with celecoxib
AHR = tested on: AHR; parameters: method as in PMID 34025677; conditions: AHR antagonist; induction by kynurenine in CD8+ T cells
T cell activation = tested on: T cell activation; parameters: method as in PMID 35663990; conditions: glutaminase inhibitor; autoimmune hepatitis
IDO1 [4] = tested on: IDO1; parameters: method as in PMID 30227893, PMID 35269712; conditions: IDO1 inhibitor; read-out: IC50 in direct enzyme assay
[5] = parameters: method as in PMID 29040756, PMID 25330068
[6] = tested on: Metastatic prostate cancer; conditions: combination with sipuleucel-T; Phase 2
Metastatic breast cancer = conditions: compared with taxane; Phase 2
IDO [7] = tested on: IDO; parameters: method as in PMID 32024760; conditions: IDO activity enhanced
IDO2 [8] = tested on: IDO2; parameters: method as in PMID 36389710
IDO1 [9] = tested on: IDO1; parameters: method as in PMID 36389710
T cell = tested on: T cell; parameters: method as in PMID 31648326; conditions: MEK inhibitor
IDO1 [10] = tested on: IDO1; parameters: method as in PMID 28212885; conditions: COX-2 inhibitor
experimental arthritis = tested on: experimental arthritis; parameters: method as in PMID 33941676; conditions: IDO-dependent manner
PD-L1 [11] = tested on: PD-L1; parameters: method as in PMID 33220359
[12] = tested on: triple-negative breast cancer, colon and lung syngeneic tumor models; parameters: method as in PMID 35265193; conditions: combined with an anti-PD-L1 antibody
PD-L1 [13] = tested on: PD-L1; parameters: method as in PMID 35120895; conditions: via inhibition of the JAK–STAT–IRF1 pathway
IDO [14] = tested on: IDO; parameters: method as in PMID 35120895; conditions: via inhibition of the JAK–STAT–IRF1 pathway
IDO1 [15] = conditions: COX-2 inhibition; IFNγ-induced

For `Cn1cc(C[C@H](N)C(=O)O)c2ccccc21` (single isomer, unassigned; isomer 1) [L-isomer, 1-methyl-tryptophan], the “inhibiting IDO2” value (IDO2 [1]) is given as “much more active”.

For `O=CC[C@@H](O)[C@H](O)[C@H](O)CO` [2-deoxyglucose], the IFNγ production [2] is listed as “inhibit IFNγ production”.

In the case of `O=C(CCCCCCNC(=O)c1cnc(N(c2ccccc2)c2ccccc2Cl)nc1)NO` [ACY241], the “efficacy against multiple myeloma” value (multiple myeloma) is given as “effective”.

In the case of `C=C1C(=O)O[C@H]2C[C@@H](C)[C@@H]3[C@@H](OC(C)=O)C[C@H](O)[C@@]3(C)[C@@H](OC(C)=O)[C@H]12` [Britannin], the “expression of PD-L1” value (PD-L1 [3]) is given as “reducing the expression of PD-L1”.

In the case of `Nc1ncnc2c1ncn2[C@@H]1O[C@@H]2COP(=O)(O)O[C@H]3[C@@H](O)[C@H](n4cnc5c(N)ncnc54)O[C@@H]3COP(=O)(O)O[C@H]2[C@H]1O` [CDA, cyclic di-adenyl monophosphate], the survival (Lewis lung carcinomas) is listed as “enhanced survival” and the tumor growth (Lewis lung carcinomas) is listed as “controlled tumor growth”.

In the case of `Cc1ccccc1N=Nc1ccc(NC(=O)c2ccnn2C)c(C)c1` [CH223191], the “induction of PD-1” value (AHR) is given as “blocked the induction of PD-1”.

In the case of `[N-]=[N+]=CC(=O)CC[C@H](N)C(=O)O` [DON, 6-diazo-5-oxo-L-norleucine], the T cell activation (T cell activation) is given as “inhibited T cell activation”.

For `NS(=O)(=O)NCCNc1nonc1C(=NO)Nc1ccc(F)c(Br)c1` [Epacadostat], the pIC50 (IDO1 [4]) is given as […], the trial outcome (melanoma; combined with the PD-1 antagonist pembrolizumab) is given as “no significant benefit” and the clinical efficacy (melanoma; randomized trial combined with pembrolizumab in patients with melanoma) is given as “clinically ineffective”.

In the case of `O=Cc1c2[nH]c3ccccc3c2cc2[nH]c3ccccc3c12` [FICZ, 6-Formylindolo-[3,2-b]-carbazole], the metabolism / removal [5] is listed as “rapidly removed”.

For `Cn1cc(C[C@@H](N)C(=O)O)c2ccccc21` [Indoximod, 1-methyl-D-tryptophan], the trial outcome [6] is listed as “[224] Combination with sipuleucel-T yielded radiological and clinical improvement” and the trial outcome (Metastatic breast cancer) is listed as “[226] No improvement compared with taxane”.

In the case of `CC(=O)NCCc1c[nH]c2ccc(O)cc12` [N-acetyl-5-hydroxy-tryptamine], the “mode of action on IDO activity” value (IDO [7]) is listed as “positive allosteric modulator”.

For `CCCCCCCC1=Nc2ccccc2C(=O)C1O` (stereo not shown) [PQS, 2-heptyl-3-hydroxy-4-quinolone], the “expression of IDO2” value (IDO2 [8]) is given as “inhibits” and the “expression of IDO1” value (IDO1 [9]) is given as “inhibits”.

For `Clc1cc2c(cc1Cl)Oc1cc(Cl)c(Cl)cc1O2` [TCDD, 2,3,7,8-tetrachloro-dibenzo-dioxin], the metabolism / removal [5] is listed as “poorly metabolized”.

In the case of `CC(=O)Nc1cccc(-n2c(=O)n(C3CC3)c(=O)c3c(Nc4ccc(I)cc4F)n(C)c(=O)c(C)c32)c1` [Trametinib], the “T cell viability and proliferation” value (T cell) is given as “promote T cell viability and proliferation”.

In the case of `Cc1ccc(-c2cc(C(F)(F)F)nn2-c2ccc(S(N)(=O)=O)cc2)cc1` [celecoxib], the “induction of IDO1” value (IDO1 [10]) is given as “prevented the induction of IDO1”.

In the case of `Nc1ncn([C@H]2C[C@H](O)[C@@H](CO)O2)c(=O)n1` [decitabine], the occurrence of relapse (experimental arthritis) is listed as “prevented the occurrence of relapse” and the symptoms of arthritis (experimental arthritis) is listed as “reduced the symptoms of arthritis”.

For `COc1ccc(CCc2cc(OC)c(OC)c(OC)c2)cc1O` [erianin], the PD-L1 expression (PD-L1 [11]) is given as “inhibited PD-L1 expression”.

In the case of `CCCNS(=O)(=O)Nc1ncnc(OCCOc2ncc(Br)cn2)c1-c1ccc(Br)cc1` [macitentan], the anti-tumor efficacy [12] is listed as “improved anti-tumor efficacy”.

In the case of `CN(C)C(=N)N=C(N)N` [metformin], the IFNγ production [2] is listed as “inhibit IFNγ production”.

In the case of `O=c1c(O)c(-c2cc(O)c(O)c(O)c2)oc2cc(O)cc(O)c12` [myricetin], the “induction of PD-L1 by IFNγ” value (PD-L1 [13]) is given as “prevent the induction” and the “induction of IDO by IFNγ” value (IDO [14]) is given as “prevent the induction”.

For `CS(=O)(=O)Nc1ccc([N+](=O)[O-])cc1Oc1ccccc1` [nimesulide], the “induction of IDO1” value (IDO1 [15]) is given as “prevented induction of IDO1”.
